Test [1] deals with IL-17A secretion by CD4+ cells. Briefly: IL-17A secretion by CD4+ cells (HTRF). The class given is cell-based. The conditions noted are these: human CD4+ cells activated with anti-CD3 and anti-CD28, 4 days of incubation, IL-17A by HTRF, read-out: IC50 hCD4/IL17. Here is the method: This model allows measurement of the effect of inhibitors on IL-17A secretion by CD4+ cells. The cells are frozen CD4+ cells (STEMCELL, #70026), isolated from peripheral human blood and activated with anti-CD3 and anti-CD28 antibodies. The amount of IL-17A secreted is measured by the TR-FRET (kit HTRF® Human Interleukin 17A (Cisbio, #64H17PEC)) technology.
The cells are rapidly thawed, resuspended in their culture medium (RPMI inactivated 10% FCS) supplemented with soluble anti-CD28 antibodies and seeded (100 000 cells/well) in 96-well plates precoated with anti-CD3 antibodies. The cells are then treated with the ranges of inhibitors to be tested (from 1000 nM to 0.05 nM, 0.1% DMSO). After 4 days of incubation, the HTRF signal is measured using a microplate reader (excitation=337 nm, λemission=620/665 nm). The ratios obtained (665/620) are normalized relative to the positive control (cells activated with anti-CD3 and anti-CD28, 0.1% DMSO). The IC50 values are calculated from a 4-parameter logistic model using the XLFit software (IDBS).

The target of the next test is T1, hRORg (Homo sapiens, UniProt P51449).
T1 construct: expressed in transfected cells; host or cells: HG5LN (HeLa line with a GAL4-driven luciferase reporter)
T1 sequence (P51449 269-508 limits assumed): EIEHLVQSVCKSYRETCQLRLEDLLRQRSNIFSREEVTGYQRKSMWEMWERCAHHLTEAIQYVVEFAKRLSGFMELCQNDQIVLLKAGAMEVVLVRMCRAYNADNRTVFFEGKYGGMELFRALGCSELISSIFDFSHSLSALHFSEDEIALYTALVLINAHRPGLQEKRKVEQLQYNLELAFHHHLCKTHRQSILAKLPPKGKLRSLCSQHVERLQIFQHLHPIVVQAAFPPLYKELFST
The test can be described thus: GAL4-RORγ transactivation (luciferase reporter, HG5LN HeLa line). In kind it is cell-based. The following applies: HG5LN cells, 18 hours incubation, luciferase luminescence. The text has this:
GAL4-RORγ Transactivation
The RORγ transactivation model was developed from the line HG5LN, which is a HeLa line that stably expresses a luciferase reporter gene controlled by a pentamer of the GAL4 recognition domain of yeast and of a β-globin promoter. The HG5LN line was stably transfected by the DNA-binding domain (DBD) of GAL4 fused to the ROR gamma ligand-binding domain (LBD). Molecules that inhibit the ROR gamma constitutive activity reduce the luciferase expression, thus leading to a reduction in the emitted luminescence.
The cells are seeded in 384-well plates (5000 cells in 45 μL/well of culture medium containing 10% fetal calf serum) and incubated for 4 hours at 37° C., 5% CO2. 5 μL of the test molecules (compounds described in the tables described above) are then added to each well and the plates are incubated for 18 hours at a temperature of 37° C. under 5% of CO2. 20 μL of luciferase substrate (Promega) are added to each well and the luminescence emitted is read by a microplate reader.
The luminescence units (“RLU”) are normalized by positive controls (“POS” containing a saturated concentration of N-(2,2,2-trifluoroethyl)-N-[4-[2,2,2-trifluoro-1-hydroxy-1-(trifluoromethyl)ethyl]phenyl]benzenesulfonamide) and negative controls (“NEG” containing DMSO): % inhibition=((RLU-NEG)*100)/(POS-NEG). The IC50 values are calculated from a 4-parameter logistic model using the XLFit software (IDBS).
Background: Reporter assays use an easily measured gene product as a stand-in for the process of interest.

Like-named read-outs stand apart in the source and are kept apart here.

`CCc1ccc(N(CC(C)C)S(=O)(=O)c2ccc3[nH]c(=O)n(CC4CCOCC4)c3c2)cc1` [Compound 21, 2-oxo-3-(tetrahydropyran-4-ylmethyl)-2,3-dihydro-1H-benzimidazole-5-sulfonic acid (4-ethylphenyl)isobutylamide]: the IC50 (in test [1]; against hRORg) was 100 to 1000 nM each time.

Consider `CCc1ccc(N(CC(C)C)S(=O)(=O)c2ccc3c(c2)[nH]c(=O)n3CC2CCOCC2)cc1` [Compound 2, 2-oxo-1-(tetrahydropyran-4-ylmethyl)-2,3-dihydro-1H-benzimidazole-5-sulfonic acid (4-ethylphenyl)isobutylamide], for which the IC50 in test [1] (Homo sapiens, 96 h) is under 100 nM; on hRORg it was under 100 nM.

In the case of `CCc1ccc(N(CC(C)C)S(=O)(=O)c2ccc3c(c2)[nH]c(=O)n3C2CCNCC2)cc1` [Compound 13, 2-oxo-1-piperidin-4-yl-2,3-dihydro-1H-benzimidazole-5-sulfonic acid (4-ethylphenyl)isobutylamide], the IC50 at hRORg was over 1000 nM.

For the molecule `CCc1ccc(N(CC(C)C)S(=O)(=O)c2ccc3c(c2)[nH]c(=O)n3CC2CCS(=O)(=O)CC2)cc1` [Compound 20, 1-(1,1-dioxohexahydro-1λ^6-thiopyran-4-ylmethyl)-2-oxo-2,3-dihydro-1H-benzimidazole-5-sulfonic acid (4-ethylphenyl)isobutylamide], the IC50 in test [1] (Homo sapiens, 96 h) is under 100 nM; at hRORg, under 100 nM.

Consider `CCc1ccc(N(CC(C)C)S(=O)(=O)c2ccc3c(c2)[nH]c(=O)n3C2CCN(S(C)(=O)=O)CC2)cc1` [Compound 14, 1-(1-methanesulfonylpiperidin-4-yl)-2-oxo-2,3-dihydro-1H-benzimidazole-5-sulfonic acid (4-ethylphenyl)isobutylamide], for which the IC50 at hRORg was over 1000 nM.

As to `Cc1ccc(N(CC(C)C)S(=O)(=O)c2ccc3c(c2)[nH]c(=O)n3CC2CCOCC2)c(C)c1` [Compound 17, 2-oxo-1-(tetrahydropyran-4-ylmethyl)-2,3-dihydro-1H-benzimidazole-5-sulfonic acid (2,4-dimethylphenyl)isobutylamide], the IC50 was under 100 nM in test [1] (Homo sapiens, 96 h) and under 100 nM at hRORg.

As for `CCc1ccc(N(CC(C)C)S(=O)(=O)c2ccc3[nH]c(=O)n(CC4CCOCC4)c3c2)cc1` [Compound 3, 2-oxo-3-(tetrahydropyran-4-ylmethyl)-2,3-dihydro-1H-benzimidazole-5-sulfonic acid (4-ethylphenyl)isobutylamide], the IC50 was under 100 nM in test [1] (Homo sapiens, 96 h) and 100 to 1000 nM against hRORg.

For `CCc1ccc(N(C2CCCC2)S(=O)(=O)c2ccc3c(c2)[nH]c(=O)n3CC2CCOCC2)cc1` [Compound 15, 2-oxo-1-(tetrahydropyran-4-ylmethyl)-2,3-dihydro-1H-benzimidazole-5-sulfonic acid (4-ethylphenyl)cyclopentylamide], the IC50 is under 100 nM in test [1] (Homo sapiens, 96 h) and under 100 nM on hRORg.

Molecule `CCc1ccc(N(CC(C)C)S(=O)(=O)c2ccc3c(c2)n(CC2CCOCC2)c(=O)n3C)cc1` [Compound 1, 1-methyl-2-oxo-3-(tetrahydropyran-4-ylmethyl)-2,3-dihydro-1H-benzimidazole-5-sulfonic acid (4-ethylphenyl)isobutylamide] gave an IC50 against hRORg of over 1000 nM.

On hRORg, `CCc1ccc(N(CC(C)C)S(=O)(=O)c2ccc3c(c2)[nH]c(=O)n3C2CCOCC2)cc1` [Compound 11, 2-oxo-1-(tetrahydropyran-4-yl)-2,3-dihydro-1H-benzimidazole-5-sulfonic acid (4-ethylphenyl)isobutylamide] came in with an IC50 of over 1000 nM.

Regarding `CCc1ccc(N(CC(C)C)S(=O)(=O)c2ccc3c(c2)[nH]c(=O)n3Cc2ccncc2)cc1` [Compound 10, 2-oxo-1-pyridin-4-ylmethyl-2,3-dihydro-1H-benzimidazole-5-sulfonic acid (4-ethylphenyl)isobutylamide], the IC50 was under 100 nM in test [1] (Homo sapiens, 96 h) and 100 to 1000 nM at hRORg.

`CCc1ccc(N(CC(C)C)S(=O)(=O)c2ccc3c(c2)[nH]c(=O)n3C2CCN(C(=O)OC(C)(C)C)CC2)cc1` [Compound 12, tert butyl ester of 4-{5-[(4-ethylphenyl)isobutylsulfamoyl]-2-oxo-2,3-dihydrobenzimidazol-1-yl}piperidine-1-carboxylic acid] showed an IC50 against hRORg of over 1000 nM.

On to `CCc1ccc(N(CC(C)C)S(=O)(=O)c2ccc3c(c2)[nH]c(=O)n3CC2COC2)cc1` [Compound 7, 1-oxetan-3-ylmethyl-2-oxo-2,3-dihydro-1H-benzimidazole-5-sulfonic acid (4-ethylphenyl)isobutylamide], for which the IC50 in test [1] (Homo sapiens, 96 h) is under 100 nM; at hRORg, under 100 nM.

Turning to `CCc1ccc(N(CC(C)C)S(=O)(=O)c2ccc3c(c2)[nH]c(=O)n3CC2(F)CCOCC2)cc1` [Compound 5, 1-(4-fluorotetrahydropyran-4-ylmethyl)-2-oxo-2,3-dihydro-1H-benzimidazole-5-sulfonic acid (4-ethylphenyl)isobutylamide], the IC50 in test [1] (Homo sapiens, 96 h) was under 100 nM; at hRORg, under 100 nM.

For the molecule `Cc1ccc(N(C2CCCC2)S(=O)(=O)c2ccc3c(c2)[nH]c(=O)n3CC2CCOCC2)c(C)c1` [Compound 18, 2-oxo-1-(tetrahydropyran-4-ylmethyl)-2,3-dihydro-1H-benzimidazole-5-sulfonic acid cyclopentyl(2,4-dimethylphenyl)amide], the IC50 in test [1] (Homo sapiens, 96 h) is under 100 nM; on hRORg, under 100 nM.

With `CCc1ccc(N(CC(C)C)S(=O)(=O)c2ccc3c(c2)[nH]c(=O)n3CC2CNC(=O)O2)cc1` (stereo not shown) [Compound 9, 2-oxo-1-(2-oxooxazolidin-5-ylmethyl)-2,3-dihydro-1H-benzimidazole-5-sulfonic acid (4-ethylphenyl)isobutylamide], on hRORg, the IC50 was over 1000 nM.

Take `CCc1ccc(N(CC(C)C)S(=O)(=O)c2ccc3c(c2)[nH]c(=O)n3C[C@H]2[C@@H]3COC[C@@H]32)cc1` [Compound 6, 1-[(1R,5S,6S)-1-(3-oxabicyclo[3.1.0]hex-6-yl)methyl]-2-oxo-2,3-dihydro-1H-benzimidazole-5-sulfonic acid (4-ethylphenyl)isobutylamide]: the IC50 at hRORg is under 100 nM.

Take `CCc1ccc(N(CC(C)C)S(=O)(=O)c2ccc3c(c2)[nH]c(=O)n3CC2(C)CCOCC2)cc1` [Compound 4, 1-(4-methyltetrahydropyran-4-ylmethyl)-2-oxo-2,3-dihydro-1H-benzimidazole-5-sulfonic acid (4-ethylphenyl)isobutylamide]: the IC50 in test [1] (Homo sapiens, 96 h) was under 100 nM; on hRORg it was under 100 nM.

As to `CCC(CC)N(c1ccc(C)cc1C)S(=O)(=O)c1ccc2c(c1)[nH]c(=O)n2CC1CCOCC1` [Compound 19, 2-oxo-1-(tetrahydropyran-4-ylmethyl)-2,3-dihydro-1H-benzimidazole-5-sulfonic acid (2,4-dimethylphenyl)(1-ethylpropyl)amide], the IC50 in test [1] (Homo sapiens, 96 h) was under 100 nM; on hRORg, under 100 nM.

With `CCc1ccc(N(C(CC)CC)S(=O)(=O)c2ccc3c(c2)[nH]c(=O)n3CC2CCOCC2)cc1` [Compound 16, 2-oxo-1-(tetrahydropyran-4-ylmethyl)-2,3-dihydro-1H-benzimidazole-5-sulfonic acid (4-ethylphenyl)(1-ethylpropyl)amide], the IC50 is under 100 nM in test [1] (Homo sapiens, 96 h) and under 100 nM against hRORg.

At hRORg, `CCc1ccc(N(CC(C)C)S(=O)(=O)c2ccc3c(c2)[nH]c(=O)n3CC2COC(=O)O2)cc1` (stereo not shown) [Compound 8, 2-oxo-1-(2-oxo[1,3]dioxolan-4-ylmethyl)-2,3-dihydro-1H-benzimidazole-5-sulfonic acid (4-ethylphenyl)isobutylamide] showed an IC50 of under 100 nM.
